Results on 59 compounds are retold here after the METLIN SMRT retention time set (Domingo-Almenara et al. 2019).

The data set in a line: gradient 5% acetonitrile 3 min, to 50% in 2 min, to 85% in 15 min, held 3 min, 100 µL/min. The following applies: column: Zorbax Extend-C18 2.1 x 50 mm; eluents: water / acetonitrile, 0.1% formic acid. The method, boiled down:
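Pure standards were analyzed in mixtures of ~100 molecules using HPLC coupled to a quadrupole time-of-flight mass spectrometer, in both positive and negative ionization mode. Separation used a Zorbax Extend-C18 column (2.1 × 50 mm, 1.8 μm) at 100 μL/min, with water and acetonitrile each containing 0.1% formic acid. Dead and dwell volumes were 40 μL and 900 μL, and data were collected over 3 months. Retention time was read from computationally picked adduct peaks, each inspected manually.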
On to `OC(COc1ccccc1Cl)Cn1c(C2CC2)nc2ccccc21` (centres undefined), for which the RP-LC retention time came to 693 s. Under `Cc1ccccc1C(=O)N1CC(C(=O)NCC(C)C)C(c2cccc(C(F)(F)F)c2)C1` (centres undefined) stands 907 s. In turn, `Cc1nnc2c(=O)n(CC(=O)NCc3cc(F)ccc3F)c3cccnc3n12` yielded an RP-LC retention time of 670 s. The result for `CCCn1nnnc1NCc1ccc(-c2ccc(Br)cc2)o1` reads 957 s; that for `CCN1CCN(CCCNC(=O)Cn2cnc3nc4c(cc3c2=O)CCCC4)CC1`, 554 s; that for `CC(C)CNC(=O)c1ccc(-c2nnc3ccc(NC(=O)C4CC4)cn23)cc1`, 708 s. The result for `COC(=O)c1ccc(C2CC(=O)NC3=C2C(=O)CCC3)cc1` (centres undefined) reads 653 s; that for `O=C1NC(=O)N2CCSC2(Cc2ccccc2)N1` (centres undefined), 670 s; that for `COc1ccc(-c2nnc(COc3ccc(NC(=O)c4ccnn4C)cc3)o2)cc1`, 790 s. The result for `CCCN1CCN(c2cc(C(=O)O)c3cc(NS(=O)(=O)c4ccc(CC)cc4)ccc3n2)CC1` reads 642 s; that for `Cc1ccc(CNC(=O)C(=O)NCC(c2ccc3c(c2)CCCN3C)N2CCCC2)cc1` (centres undefined), 746 s. As for `CC1=NS(=O)(=O)N(C)C=C1C(=O)OCc1cc(F)cc(F)c1`, the RP-LC retention time is 934 s. The result for `CC(NC(=O)c1ccc2c(c1)OCO2)C(=O)N1CCN(c2ccccn2)CC1` (centres undefined) reads 580 s; that for `CCCCN(CC)CCNC(=O)C1CCN(c2ncnc3onc(C)c23)CC1`, 598 s.

The compound `CC1Oc2ccc(NC(=O)C3CCCC3)cc2CN(Cc2ccccc2F)C1=O` (centres undefined) came in with an RP-LC retention time of 864 s. Under `CC(C)(C)C(O)CCNC(=O)Cc1cccs1` (centres undefined) stands 673 s; under `CC(=O)N1CCC2(CC1)OC(=O)C(C)=C2C(=O)N1CCc2ccccc2C1`, 692 s. The result for `CC1CCC(C(=O)Nc2ccc3c(c2)n(C)c(=O)c(=O)n3C)CC1` (centres undefined) reads 737 s; that for `CCCNC(=O)c1sc(Nc2cccc(C)n2)nc1C`, 697 s. Regarding `Cc1ccc2c(Nc3ccc(C(C)C)cc3)c(C(=O)N3CCCCC3C)cnc2n1` (centres undefined), the RP-LC retention time was determined as 737 s. The result for `O=C(CN1C(=O)CSc2ccc(C(=O)N3CCCCC3)cc21)NCCC1=CCCCC1` reads 870 s. With `COc1cccc(CN2CCn3c(nnc3[C@@H]3C[C@@H](O)CN3C)C2)c1OC`, the RP-LC retention time was 549 s. Under `COCCn1cc2c3c(cccc31)CN(C(=O)Nc1ccc(C)c(C)c1)CC2` stands 1020 s; under `COc1cc2c(cc1OC)C1C(C(=O)NCCCN3CCN(C)CC3)c3ccccc3C(=O)N1CC2` (centres undefined), 547 s; under `CCc1noc(CN2N=C(C(=O)N3CCC(C)CC3)S(=O)(=O)c3ccccc32)n1`, 886 s.

`FC(F)(F)c1nc2cc3c(cc2n1Cc1ccc(Br)cc1)OCCO3` returned an RP-LC retention time of 1080 s.

As for `C=C[C@H]1CN2CCC1C[C@@H]2C(O)c1ccnc2ccccc12` (some centres undefined), the RP-LC retention time is 576 s. For the compound `Fc1cccc(-c2nc(-c3ccc4c(c3)ncn4CCN3CCOCC3)no2)c1`, the RP-LC retention time was found to be 642 s. Turning to `COc1ccc(OCc2noc(CNC(=O)Cc3c[nH]c4ccccc34)n2)cc1`, the RP-LC retention time was found to be 681 s. The result for `COc1ccc(C(CNC(=O)c2cc(=O)c3cc(C)c(C)cc3o2)N(C)C)cc1` (centres undefined) reads 644 s; that for `Cc1nc(-c2ccc(N3CCN(C(=O)c4cccs4)CC3)nc2)sc1C`, 823 s; that for `O=S(=O)(NCc1nc(-c2ccc(-c3csc(C4CC4)n3)cc2)no1)c1ccccc1`, 1100 s. Compound `Cn1cc(C(=O)N2CC(Oc3ccc(-c4nc(-c5ccccc5)no4)cc3)C2)cn1` returned an RP-LC retention time of 941 s. The result for `O=C(CN1C(=O)CCCc2cc(S(=O)(=O)N3CCCC3)ccc21)NC1CCCCCC1` reads 848 s. The result for `Cc1ccccc1-c1noc(Cn2c(=O)n(Cc3ccc4c(c3)OCO4)c(=O)c3sccc32)n1` reads 1110 s; that for `CC(NC(=O)C1CCc2nc(N3CCOCC3)ncc2C1)c1ccco1` (centres undefined), 630 s. The result for `O=c1n(Cc2c(F)cccc2Cl)nc2c(S(=O)(=O)N3CCCC3)cccn12` reads 840 s. Regarding `CCN(CC)c1cc(CNC(=O)Nc2cc(Cl)ccc2OC)ccn1`, the RP-LC retention time came to 690 s. For `O=C(Nc1ccc(C(F)(F)F)cc1)c1cn(CC(O)c2ccccc2)nn1` (centres undefined), the RP-LC retention time worked out at 581 s. Under `Cc1ccc(N2CCN(C(=O)C3CCCN(c4ncnc5c4nc4n5CCCCC4)C3)CC2)c(C)c1` (centres undefined) stands 1050 s; under `CCCCn1c(=O)c2ccccc2n(Cc2nc(-c3ccc(OC)cc3)no2)c1=O`, 1160 s.

Consider `COc1ccccc1OCC(=O)N(Cc1ccc(N(C)C)cc1)C1CCS(=O)(=O)C1` (centres undefined), for which the RP-LC retention time turned out to be 611 s. Under `CCOC(=O)c1cccc(NC(=O)CCc2ccc3nc(CC)[nH]c3c2)c1` stands 638 s; under `Cc1nn(-c2cc(N3CCCC3)ncn2)c(C)c1CCC(=O)N1CCN(c2ccccn2)CC1`, 587 s. Compound `CNC(=O)N1CCCC(c2cccc(C(=O)N3CCN(c4ccc(Cl)cc4)CC3)c2)C1` (centres undefined) returned an RP-LC retention time of 864 s. The result for `COc1ccc(N2CC(c3nc(-c4cccs4)no3)CC2=O)cc1Cl` (centres undefined) reads 930 s; that for `NC(N)=N/N=C(\c1ccc(Cl)cc1)C1CC1`, 665 s; that for `Cc1ccccc1-c1noc(C2CCCN2C(=O)Nc2ccc(F)cc2F)n1` (centres undefined), 993 s. The result for `CN(CCNC(=O)c1ccc(CN2C(=O)CCn3nccc32)cc1)C1CCCCC1` reads 599 s; that for `Cc1ccnc(N2CCC(C(=O)NCc3ccco3)CC2)n1`, 624 s. Under `Cc1sc(-c2cc(C(F)(F)F)on2)cc1S(=O)(=O)N1CCCCC1` stands 1210 s. In turn, `CCNc1nc(N2CCCC2)nc(-n2cnc(SC)n2)n1` returned an RP-LC retention time of 885 s.

On to `COc1ccc(CNC(=O)C2c3ccccc3C(=O)N3CCc4ccccc4C23)c(OC)c1` (centres undefined), for which the RP-LC retention time came out at 796 s. `Cc1ccccc1NC(=O)C1CC(=O)N(c2n[nH]c3cccc(F)c23)C1` (centres undefined) came in with an RP-LC retention time of 733 s.

`Cn1nc(-c2nnc(-c3ccccc3Cl)o2)c2c1CCN(C(=O)COc1ccc(F)cc1)C2` yielded an RP-LC retention time of 891 s. Compound `CC(C)c1ccc(S(=O)(=O)N2CC(=O)N(C3CCCC3)C3(CCCCC3)C2)cc1` had an RP-LC retention time of 1330 s.

Turning to `Cc1cccc(Oc2nccn3c(=O)n(CC(=O)NCCCc4ccccc4)nc23)c1C`, the RP-LC retention time was found to be 944 s. As for `Cc1nc(N2CCCC(C(=O)NCCc3ccc(S(N)(=O)=O)cc3)C2)c2c(C)c(C)oc2n1` (centres undefined), the RP-LC retention time was found to be 680 s. The result for `O=C(Nc1ccc(N2CCN(C3CCCC3)C2=O)nc1)c1ccc(Br)cc1` reads 876 s.
